# US8691818B2, “Cyclic triazo and diazo sodium channel blockers” (University Of Greenwich, priority 2008, dated 2014)
# Structures can show the parent of a compound that is named as a salt.
# How the values were obtained:
# Sodium Channel, Site 2 = format: binding, Wistar Rat; conditions: for IC50: read-out: [3H]BTX-B binding Extrapolated IC50
# [1] = biological target: T1, DiHydroFolate Reductase (DHFR) (Rattus norvegicus, UniProt Q920D2); test: Inhibition of binding of [3H]methotrexate to rat liver homogenate supernatant; conditions: 125 μM; read-out: [3H]mtx binding (% inhibition @ 125 μM)
# T1 construct: from tissue; host or cells: rat liver homogenate supernatant
# T1 sequence (Q920D2 1-187): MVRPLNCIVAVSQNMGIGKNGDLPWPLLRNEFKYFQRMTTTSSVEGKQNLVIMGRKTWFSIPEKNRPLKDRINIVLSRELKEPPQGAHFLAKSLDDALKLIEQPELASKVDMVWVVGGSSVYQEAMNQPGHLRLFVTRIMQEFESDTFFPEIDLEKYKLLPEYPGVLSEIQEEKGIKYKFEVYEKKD
# Procedure, shortened: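 Displacement of [3H]methotrexate binding to rat liver homogenate supernatant, prepared at 4 °C in pH 6.0 phosphate buffer with 15 mM dithiothreitol. Values are mean±sem over the number of experiments shown.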
# hERG = hERG (Homo sapiens, UniProt Q12809); test: hERG: inhibition of binding of [3H]astemizole to HEK-293 cells expressing human recombinant hERG; conditions: for inhibition at 10 µM: human, probe [3H]astemizole
# sodium channel = test: [14C]guanidine flux: veratrine-evoked uptake of [14C]guanidine into rat forebrain synaptosomes (primary sodium channel assay); format: biochemical; conditions: 30° for 2½ min
# Procedure, shortened: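 Synaptosomal fraction from male Wistar rat forebrain (without cerebellum/medulla), 20-25 mg wet weight/ml. Veratrine-evoked [14C]guanidine uptake at 30° for 2½ min across a compound concentration range; IC50 from concentration-effect curves, mean±sem.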
# hERG, sequence (Q12809 whole entry): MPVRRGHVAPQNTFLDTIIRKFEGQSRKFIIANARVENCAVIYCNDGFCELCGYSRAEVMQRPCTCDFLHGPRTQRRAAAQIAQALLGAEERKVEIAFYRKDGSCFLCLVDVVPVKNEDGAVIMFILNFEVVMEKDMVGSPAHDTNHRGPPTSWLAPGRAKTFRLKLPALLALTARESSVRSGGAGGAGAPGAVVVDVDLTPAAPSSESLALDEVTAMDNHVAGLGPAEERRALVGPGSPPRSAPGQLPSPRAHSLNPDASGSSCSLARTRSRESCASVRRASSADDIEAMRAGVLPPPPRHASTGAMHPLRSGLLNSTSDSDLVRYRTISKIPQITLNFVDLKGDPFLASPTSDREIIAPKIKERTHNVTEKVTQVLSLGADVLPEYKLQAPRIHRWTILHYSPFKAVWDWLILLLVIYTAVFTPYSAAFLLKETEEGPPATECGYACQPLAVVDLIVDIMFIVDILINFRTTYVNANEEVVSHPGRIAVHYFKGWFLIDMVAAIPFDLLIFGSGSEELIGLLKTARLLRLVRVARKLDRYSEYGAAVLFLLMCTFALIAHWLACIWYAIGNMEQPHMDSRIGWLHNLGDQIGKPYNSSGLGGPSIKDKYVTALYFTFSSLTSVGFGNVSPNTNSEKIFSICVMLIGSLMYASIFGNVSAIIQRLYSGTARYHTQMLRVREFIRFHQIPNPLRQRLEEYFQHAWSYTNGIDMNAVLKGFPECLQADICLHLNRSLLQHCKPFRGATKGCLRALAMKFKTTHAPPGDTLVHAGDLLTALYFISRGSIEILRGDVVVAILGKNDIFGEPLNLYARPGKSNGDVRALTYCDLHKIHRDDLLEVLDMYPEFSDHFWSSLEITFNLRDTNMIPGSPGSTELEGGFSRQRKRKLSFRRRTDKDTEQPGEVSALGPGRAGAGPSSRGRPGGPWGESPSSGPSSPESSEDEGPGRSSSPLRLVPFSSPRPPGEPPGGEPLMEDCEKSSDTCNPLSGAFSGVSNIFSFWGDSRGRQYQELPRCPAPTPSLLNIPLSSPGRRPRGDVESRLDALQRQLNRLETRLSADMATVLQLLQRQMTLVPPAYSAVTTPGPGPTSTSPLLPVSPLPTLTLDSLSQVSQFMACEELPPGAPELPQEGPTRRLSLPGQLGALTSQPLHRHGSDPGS
SMILES,"[3H]BTX-B binding % inhibition (@ 10 μM) (Sodium Channel, Site 2) [%]","IC50 (Sodium Channel, Site 2) [µM]",inhibition at 125 µM [1] [%],IC50 (hERG) [µM],inhibition at 10 µM (hERG) [%],melting point [°C],IC50 (sodium channel) [µM]
"CCn1nc(-c2cc(C(F)(F)F)cc(Cl)c2F)c(N)nc1=N [CEN-203, 5(3)-Amino-6-(3-chloro-2-fluoro-5-trifluoromethyphenyl)-2,3(2,5)-dihydro-3(5)-imino-2-ethyl-1,2,4-triazine mesylate]",102,< 0.5,–,–,–,–,–
"Cc1ccc(S(=O)(=O)O)cc1.Nc1nnc(-c2c(Cl)ccc(Cl)c2Cl)c(N)n1 [CEN-214, 3,5-Diamino-6-(2,3,6-trichlorophenyl)-1,2,4-triazine tosylate]",10,90,–,–,–,–,–
"Nc1nnc(-c2cccc(C(F)(F)F)c2Cl)c(N)n1 [CEN-199, 3,5-Diamino-6-(2-chloro-3-trifluoromethylphenyl)-1,2,4-triazine]",29,25,–,–,–,–,–
"Cn1nc(-c2cccc3ccccc23)c(N)nc1=N [CEN-78, 5(3)-Amino-6-(1-naphthyl)-2,3(2,5)-dihydro-3(5)-imino-2-methyl-1,2,4-triazine]",–,–,9,32,24,248 to 250,102
"Nc1ncc(-c2cccc(Cl)c2Cl)c(N)n1 [CEN-41, 2,4-Diamino-5-(2,3-dichlorophenyl)pyrimidine]",–,–,76,> 200,-3,289 to 291,60.3
"Nc1nnc(C2c3ccccc3Oc3ccccc32)c(N)n1 [CEN-182, 3,5-Diamino-6-(9-xanthyl)-1,2,4-triazine]",–,–,6,90,10,159 to 161,214
"Cn1nc(-c2ccc3c(c2)OC(F)(F)O3)c(N)nc1=N [CEN-81, 5(3)-Amino-6-[5-(2,2-difluorobenzodioxolo)]-dihydro-3(5)-imino-2-methyl-1,2,4-triazine]",–,–,-2,49,17,297 to 298,251
"CC(C)C(c1ccccc1)c1nnc(N)nc1N (centres unmarked) [CEN-201, 3,5-Diamino-6-(1-isopropyl-1-phenylmethy)-1,2,4-triazine]",3,> 200,–,–,–,–,–
"Nc1nnc(-c2cc(F)c(F)cc2Cl)c(N)n1 [CEN-207, 3,5-Diamino-6-(2-chloro-4,5-difluorophenyl)-1,2,4-triazine]",30,23,–,–,–,240 to 242,–
"CCn1nc(-c2cccc3ccccc23)c(N)nc1=N [CEN-77, 5(3)-Amino-6-(1-naphthyl)-2,3(2,5)-dihydro-3(5)-imino-2-ethyl-1,2,4-triazine]",–,–,-1,18,36,191 to 193,14.5
"Nc1nnc(-c2cc(F)c(F)c(F)c2F)c(N)n1 [CEN-208, 3,5-Diamino-6-(2,3,4,5-tetrafluorophenyl)-1,2,4-triazine]",31,22,–,–,–,233 to 235,–
"CCn1nc(-c2cc(F)c(F)cc2Cl)c(N)nc1=N.CS(=O)(=O)O [CEN-205, 5(3)-Amino-6-(2-chloro-4,5-difluoro-5-phenyl)-2,3(2,5)-dihydro-3(5)-imino-2-ethyl-1,2,4-triazine mesylate]",79,3,–,–,–,–,–
"Cn1nc(-c2cc(F)c(F)cc2Cl)c(N)nc1=N [CEN-204, 5(3)-Amino-6-(2-chloro-4,5-difluoro-5-phenyl)-2,3(2,5)-dihydro-3(5)-imino-2-methyl-1,2,4-triazine mesylate]",52,9,–,–,–,–,–
"N=c1nc(N)c(-c2cc(C(F)(F)F)cc(Cl)c2F)nn1CC(F)(F)C(F)F.O=S(=O)(O)C(F)(F)F [CEN-210, 5(3)-Amino-6-(3-chloro-2-fluoro-5-trifluoromethyphenyl)-2,3(2,5)-dihydro-3(5)-imino-2-(2,2,3,3-tetrafluoropropyl)-1,2,4-triazine trifluoromethanesulphonate]",43,13,–,–,–,–,–
"Cc1ccc(-c2nnc(N)nc2-c2ccc(C)cc2)cc1 [CEN-126, 3-Amino-5,6-bis(4-methylphenyl)-1,2,4-triazine]",–,–,-12,3,79,134 to 136,58.9
"Cc1ccc(S(=O)(=O)O)cc1.Nc1nnc(-c2c(F)c(F)c(F)c(F)c2F)c(N)n1 [CEN-212, 3,5-Diamino-6-(2,3,4,5,6-pentafluorophenyl)-1,2,4-triazine tosylate]",0,> 200,–,–,–,–,–

SMILES,"[3H]BTX-B binding % inhibition (@ 10 μM) (Sodium Channel, Site 2) [%]","IC50 (Sodium Channel, Site 2) [µM]",inhibition at 125 µM [1] [%],IC50 (hERG) [µM],inhibition at 10 µM (hERG) [%],melting point [°C],IC50 (sodium channel) [µM]
"N=c1nc(N)c(-c2cc(C(F)(F)F)cc(Cl)c2F)nn1CC(F)(F)C(F)(F)F.O=S(=O)(O)C(F)(F)F [CEN-211, 5(3)-Amino-6-(3-chloro-2-fluoro-5-trifluoromethyphenyl)-2,3(2,5)-dihydro-3(5)-imino-2-(2,2,3,3,3-pentafluoropropyl)-1,2,4-triazine trifluoromethanesulphonate]",106,< 0.5,–,–,–,–,–
"Nc1nnc(-c2ccc(F)c(F)c2F)c(N)n1 [CEN-206, 3,5-Diamino-6-(2,3,4-trifluorophenyl)-1,2,4-triazine]",24,32,–,–,–,242 to 243,–
"Cn1nc(-c2ccccc2Oc2ccccc2)c(N)nc1=N [CEN-105, 5(3)-Amino-6-(2-phenoxyphenyl)-2,3(2,5)-dihydro-3(5)-imino-2-methyl-1,2,4-triazine]",–,–,86,19,35,164 to 166,100
"CC(C)(Oc1ccc(Cl)cc1)c1nnc(N)nc1N [CEN-215, 3,5-Diamino-6-{1-(4-chlorophenoxy)-1-methyl}ethyl-1,2,4-triazine tosylate]",22,35,–,–,–,–,–
"Cn1nc(-c2cc(C(F)(F)F)cc(Cl)c2F)c(N)nc1=N [CEN-202, 5(3)-Amino-6-(3-chloro-2-fluoro-5-trifluoromethyphenyl)-2,3(2,5)-dihydro-3(5)-imino-2-methyl-1,2,4-triazine mesylate]",90,1,–,–,–,–,–
"Cc1ccc(S(=O)(=O)O)cc1.Nc1nnc(-c2cc(C(F)(F)F)ccc2C(F)(F)F)c(N)n1 [CEN-198, 3,5-Diamino-6-[2,5-bis(trifluoromethyl)phenyl]-1,2,4-triazine tosylate]",23,34,–,–,–,–,–
Nc1nnc(-c2cccc3c2-c2ccccc2C3)c(N)n1 [CEN-129],–,–,-3,133,7,240 to 242,190
"Nc1nnc(-c2cc(Cl)ccc2C(F)(F)F)c(N)n1 [CEN-200, 3,5-Diamino-6-(5-chloro-2-trifluoromethylphenyl)-1,2,4-triazine]",14,61,–,–,–,242 to 243,–
"COc1ccc(-c2nnc(N)nc2-c2ccc(OC)cc2)cc1 [CEN-127, 3-Amino-5,6-bis(4-methoxylphenyl)-1,2,4-triazine]",–,–,-24,> 200,2,179 to 181,85.1
"CCn1nc(-c2cccs2)c(N)nc1=N [CEN-62, 5(3)-Amino-6-(2-thienyl)-2,3(2,5)-dihydro-3(5)-imino-2-ethyl-1,2,4-triazine methanesulfonate]",–,–,46,> 200,-13,–,141
"Nc1nnc(-c2ccc(Oc3ccccc3)cc2)c(N)n1 [CEN-93, 3,5-Diamino-6-(4-phenoxphenyl)-1,2,4-triazine]",–,–,4,19,35,266 to 267,63.1
"Nc1nnc(C(c2ccc(Cl)cc2)c2ccc(Cl)cc2)c(N)n1 [CEN-213, 3,5-Diamino-6-[1,1 bis-(4-chlorophenyl)methyl]-1,2,4-triazine]",−2,> 200,–,–,–,–,–
"Cn1nc(-c2cc(Cl)sc2Cl)c(N)nc1=N [CEN-80, 5(3)-Amino-6-[3-(2,5-dichlorothienyl)]-2,3(2,5)-dihydro-3(5)-imino-2-methyl-1,2,4-triazine]",–,–,-1,61,14,286 to 288,123
"Cc1ccc(S(=O)(=O)O)cc1.Nc1nnc(-c2c(C(F)(F)F)ccc(Cl)c2Cl)c(N)n1 [CEN-209, 3,5-Diamino-6-(2,3-dichloro-6-trifluoromethylphenyl)-1,2,4-triazine tosylate]",36,18,–,–,–,–,–
"Cn1nc(-c2cccc(C(F)(F)F)c2Cl)c(N)nc1=N [CEN-177, 5(3)-Amino-6-(2-chloro-3-trifluoromethyphenyl)-2,3(2,5)-dihydro-3(5)-imino-2-methyl-1,2,4-triazine]",–,–,16,35,22,205 to 207,14
